Experimental data published in patent US8466088B2, “Herbicidal compositions containing benzoylpyrazole compounds” (Ishihara Sangyo Kaisha, Ltd., priority 2007, dated 2013).
Read-outs that look alike come from different tables or passages of the source.

Key:
[1] = system: crabgrass; experiment: Example 1: pot test, foliar treatment, visually observed growth inhibition of crabgrass; type: in vivo
Source text: (§1) When the herbicidal activity in a case where two active ingredients are combined, is larger than the simple sum of the respective herbicidal activities of the two active ingredients (the expected activity), it is called a synergistic effect. The activity expected by the combination of two active ingredients can be calculated as follows (Colby S. R., “Weed”, vol. 15, p. 20-22, 1967). E=α+β−(α×β+100) where
(§2) α: growth inhibition rate when treated with x (g/ha) of herbicide X,
(§3) β: growth inhibition rate when treated with y (g/ha) of herbicide Y,
(§4) E: growth inhibition rate expected when treated with x (g/ha) of herbicide X and y (g/ha) of herbicide Y.
(§5) That is, when the actual growth inhibition rate (measured value) is larger than the growth inhibition rate by the above calculation (calculated value), the activity by the combination can be regarded as showing a synergistic effect.
(§6) Upland field soil was put into a 1/1,000,000 hectare pot, and seeds of various plants were sown. When the respective plants reached predetermined leaf stage, herbicidal compositions in predetermined amounts were diluted with water in an amount corresponding to 300 L/ha and applied for foliar treatment by a small sprayer.
(§7) Further, in accordance with the above Colby's formula, the growth inhibition rate (calculated value) was calculated. In Tables, with respect to the compound A, Compound Nos. in Table 1 or 3 are described, and with respect to other herbicidal compounds, common names are described.

[2] = system: velvetleaf; experiment: Example 1: pot test, foliar treatment, visually observed growth inhibition of velvetleaf; type: in vivo, Abutilon theophrasti MEDIC.
Source text: as §1, §2, §3, §4, §5, §6, §7

[3] = 3.8 to 4.4 leaf stage, 21st day after application, 3.5 g/ha
[4] = 3.5 to 4.3 leaf stage, 21st day after application, 3.5 g/ha

CNC.COc1c(Cl)ccc(Cl)c1C(=O)O [Dicamba-dimethylammonium]
Growth inhibition rate (%) of crabgrass, Measured value ([1]; 3.0 to 4.3 leaf stage, 21st day after application, 100 g/ha): 0% | Growth inhibition rate (%) of crabgrass, Measured value ([1]; 3.0 to 4.3 leaf stage, 21st day after application, 200 g/ha): 0% | Growth inhibition rate (%) of crabgrass, Measured value ([1]; 3.5 to 5.0 leaf stage, 22nd day after application, 100 g/ha): 0% | Growth inhibition rate (%) of crabgrass, Measured value ([1]; 3.5 to 5.0 leaf stage, 22nd day after application, 200 g/ha): 0% | Growth inhibition rate (%) of crabgrass, Measured value ([1]; 3.7 to 4.6 leaf stage, 21st day after application, 100 g/ha): 0% | Growth inhibition rate (%) of crabgrass, Measured value ([1]; 3.7 to 4.6 leaf stage, 21st day after application, 200 g/ha): 15% | Growth inhibition rate (%) of velvetleaf, Measured value ([2]; 2.0 to 2.8 leaf stage, 21st day after application, 100 g/ha): 50% | Growth inhibition rate (%) of velvetleaf, Measured value ([2]; 2.0 to 2.8 leaf stage, 21st day after application, 200 g/ha): 55% | Growth inhibition rate (%) of velvetleaf, Measured value ([2]; 3.0 to 3.8 leaf stage, 28th day after application, 100 g/ha): 50% | Growth inhibition rate (%) of velvetleaf, Measured value ([2]; 3.2 to 5.0 leaf stage, 14th day after application, 100 g/ha): 50% | Growth inhibition rate (%) of velvetleaf, Measured value ([2]; 3.2 to 5.0 leaf stage, 21st day after application, 100 g/ha): 50% | Growth inhibition rate (%) of velvetleaf, Measured value ([2]; 3.5 to 4.3 leaf stage, 21st day after application, 100 g/ha): 50%

CC(C)N(C(=O)COc1nnc(C(F)(F)F)s1)c1ccc(F)cc1 [Flufenacet]
inhibition at 150 g/ha ([1]; Digitaria sanguinalis, foliar, 3.0 to 4.3 leaf stage, 21st day after application, 150 g/ha, read-out: Growth inhibition rate (%) of crabgrass, Measured value): 0% | inhibition at 300 g/ha ([1]; Digitaria sanguinalis, foliar, 3.0 to 4.3 leaf stage, 21st day after application, read-out: Growth inhibition rate (%) of crabgrass, Measured value): 5% | inhibition at 300 g/ha ([1]; Digitaria sanguinalis, foliar, 3.2 to 4.3 leaf stage, 21st day after application, read-out: Growth inhibition rate (%) of crabgrass, Measured value): 10% | inhibition at 300 g/ha ([2]; Abutilon theophrasti, foliar, 3.2 to 4.3 leaf stage, 21st day after application, 300 g/ha, read-out: Growth inhibition rate (%) of velvetleaf, Measured value): 0%

CON(C)C(=O)Nc1ccc(Cl)c(Cl)c1 [Linuron]
inhibition at 250 g/ha ([1]; Digitaria sanguinalis, foliar, 3.5 to 4.2 leaf stage, 14th day after application, 250 g/ha, read-out: Growth inhibition rate (%) of crabgrass, Measured value): 20% | inhibition at 500 g/ha ([1]; Digitaria sanguinalis, foliar, 3.5 to 4.2 leaf stage, 14th day after application, 500 g/ha, read-out: Growth inhibition rate (%) of crabgrass, Measured value): 35% | inhibition at 250 g/ha ([2]; Abutilon theophrasti, foliar, 3.3 to 4.3 leaf stage, 20th day after application, 250 g/ha, read-out: Growth inhibition rate (%) of velvetleaf, Measured value): 55% | inhibition at 500 g/ha ([2]; Abutilon theophrasti, foliar, 3.3 to 4.3 leaf stage, 20th day after application, 500 g/ha, read-out: Growth inhibition rate (%) of velvetleaf, Measured value): 93%

COC(=O)c1c(S(C)(=O)=O)ccc(C(=O)c2cnn(C)c2O)c1C [No. 2-1]
Growth inhibition rate (%) of crabgrass, Measured value [1, 3]: 45% | Growth inhibition rate (%) of velvetleaf, Measured value [2, 4]: 30%

CCOc1c(S(C)(=O)=O)ccc(C(=O)c2cnn(C)c2O)c1C [No. 2-19]
Growth inhibition rate (%) of crabgrass, Measured value ([1]; 3.8 to 5.2 leaf stage, 21st day after application, 7 g/ha): 30% | Growth inhibition rate (%) of velvetleaf, Measured value ([2]; 3.2 to 5.0 leaf stage, 14th day after application, 7 g/ha): 60% | Growth inhibition rate (%) of velvetleaf, Measured value ([2]; 3.2 to 5.0 leaf stage, 21st day after application, 7 g/ha): 50%

COCCOc1c(S(C)(=O)=O)ccc(C(=O)c2cnn(C)c2O)c1C [No. 2-28]
Growth inhibition rate (%) of crabgrass, Measured value ([1]; 3.5 to 5.0 leaf stage, 22nd day after application, 7 g/ha): 88% | Growth inhibition rate (%) of crabgrass, Measured value ([1]; 3.5 to 5.0 leaf stage, 22nd day after application, 15 g/ha): 93% | Growth inhibition rate (%) of crabgrass, Measured value ([1]; 3.6 to 4.5 leaf stage, 14th day after application, 7 g/ha): 90% | Growth inhibition rate (%) of crabgrass, Measured value ([1]; 3.6 to 4.5 leaf stage, 14th day after application, 15 g/ha): 97% | Growth inhibition rate (%) of crabgrass, Measured value ([1]; 3.6 to 4.5 leaf stage, 22nd day after application, 7 g/ha): 93% | Growth inhibition rate (%) of crabgrass, Measured value ([1]; 4.1 to 5.3 leaf stage, 14th day after application, 15 g/ha): 85% | Growth inhibition rate (%) of crabgrass, Measured value ([1]; 4.1 to 5.3 leaf stage, 20th day after application, 7 g/ha): 85% | Growth inhibition rate (%) of crabgrass, Measured value ([1]; 4.1 to 5.3 leaf stage, 20th day after application, 15 g/ha): 97% | Growth inhibition rate (%) of crabgrass, Measured value ([1]; 4.3 to 4.5 leaf stage, 20th day after application, 15 g/ha): 80% | Growth inhibition rate (%) of velvetleaf, Measured value ([2]; 3.3 to 4.2 leaf stage, 14th day after application, 7 g/ha): 93% | Growth inhibition rate (%) of velvetleaf, Measured value ([2]; 3.3 to 4.2 leaf stage, 14th day after application, 15 g/ha): 97% | Growth inhibition rate (%) of velvetleaf, Measured value ([2]; 3.3 to 4.2 leaf stage, 22nd day after application, 7 g/ha): 93% | Growth inhibition rate (%) of velvetleaf, Measured value ([2]; 3.3 to 4.2 leaf stage, 22nd day after application, 15 g/ha): 97% | Growth inhibition rate (%) of velvetleaf, Measured value ([2]; 3.5 to 4.0 leaf stage, 14th day after application, 7 g/ha): 83% | Growth inhibition rate (%) of velvetleaf, Measured value ([2]; 3.5 to 4.0 leaf stage, 14th day after application, 15 g/ha): 95% | Growth inhibition rate (%) of velvetleaf, Measured value ([2]; 3.5 to 4.0 leaf stage, 22nd day after application, 7 g/ha): 90% | Growth inhibition rate (%) of velvetleaf, Measured value ([2]; 3.5 to 4.1 leaf stage, 14th day after application, 7 g/ha): 75% | Growth inhibition rate (%) of velvetleaf, Measured value ([2]; 3.5 to 4.1 leaf stage, 14th day after application, 15 g/ha): 85% | Growth inhibition rate (%) of velvetleaf, Measured value ([2]; 3.5 to 4.1 leaf stage, 20th day after application, 7 g/ha): 75% | Growth inhibition rate (%) of velvetleaf, Measured value ([2]; 3.5 to 4.1 leaf stage, 20th day after application, 15 g/ha): 88%

CCOCc1c(S(C)(=O)=O)ccc(C(=O)c2cnn(C)c2O)c1C [No. 2-41]
Growth inhibition rate (%) of crabgrass, Measured value ([1]; 3.8 to 5.2 leaf stage, 21st day after application, 3.5 g/ha): 35% | Growth inhibition rate (%) of velvetleaf, Measured value ([2]; 3.2 to 5.0 leaf stage, 14th day after application, 3.5 g/ha): 70% | Growth inhibition rate (%) of velvetleaf, Measured value ([2]; 3.2 to 5.0 leaf stage, 21st day after application, 3.5 g/ha): 60%

CCn1ncc(C(=O)c2ccc(S(C)(=O)=O)c(OCCOC)c2C)c1O [No. 2-161]
Growth inhibition rate (%) of crabgrass, Measured value ([1]; 3.3 to 4.2 leaf stage, 28th day after application, 3.5 g/ha): 70% | Growth inhibition rate (%) of crabgrass, Measured value ([1]; 3.3 to 4.2 leaf stage, 28th day after application, 7 g/ha): 83% | Growth inhibition rate (%) of velvetleaf, Measured value ([2]; 3.0 to 3.8 leaf stage, 15th day after application, 3.5 g/ha): 60% | Growth inhibition rate (%) of velvetleaf, Measured value ([2]; 3.0 to 3.8 leaf stage, 15th day after application, 7 g/ha): 60% | Growth inhibition rate (%) of velvetleaf, Measured value ([2]; 3.0 to 3.8 leaf stage, 28th day after application, 3.5 g/ha): 45% | Growth inhibition rate (%) of velvetleaf, Measured value ([2]; 3.0 to 3.8 leaf stage, 28th day after application, 7 g/ha): 65%

COCc1c(S(C)(=O)=O)ccc(C(=O)c2cnn(C)c2O)c1C [No. 2-191]
Growth inhibition rate (%) of crabgrass, Measured value [1, 3]: 45% | Growth inhibition rate (%) of velvetleaf, Measured value [2, 4]: 40%

CCSC(=O)Oc1c(C(=O)c2ccc(S(C)(=O)=O)c(OCCOC)c2C)cnn1C [No. 55, 5-(ethylthio)carbonyloxy-1-methylpyrazol-4-yl 3-(2-methoxyethoxy)-2-methyl-4-(methylsulfonyl)phenyl ketone]
Growth inhibition rate (%) of crabgrass, Measured value ([1]; 4.0 to 4.5 leaf stage, 21st day after application, 15 g/ha): 85% | inhibition at 7 g/ha ([1]; Digitaria sanguinalis, foliar, 3.0 to 4.3 leaf stage, 21st day after application, 7 g/ha, read-out: Growth inhibition rate (%) of crabgrass, Measured value): 83% | inhibition at 15 g/ha ([1]; Digitaria sanguinalis, foliar, 3.0 to 4.3 leaf stage, 21st day after application, 15 g/ha, read-out: Growth inhibition rate (%) of crabgrass, Measured value): 95% | inhibition at 7 g/ha ([1]; Digitaria sanguinalis, foliar, 3.2 to 4.2 leaf stage, 21st day after application, 7 g/ha, read-out: Growth inhibition rate (%) of crabgrass, Measured value): 80% | inhibition at 15 g/ha ([1]; Digitaria sanguinalis, foliar, 3.2 to 4.2 leaf stage, 21st day after application, 15 g/ha, read-out: Growth inhibition rate (%) of crabgrass, Measured value): 98% | inhibition at 7 g/ha ([1]; Digitaria sanguinalis, foliar, 3.5 to 4.0 leaf stage, 21st day after application, 7 g/ha, read-out: Growth inhibition rate (%) of crabgrass, Measured value): 95% | inhibition at 15 g/ha ([1]; Digitaria sanguinalis, foliar, 4.0 to 4.5 leaf stage, 21st day after application, 15 g/ha, read-out: Growth inhibition rate (%) of crabgrass, Measured value): 73% | Growth inhibition rate (%) of velvetleaf, Measured value ([2]; 3.0 to 3.5 leaf stage, 21st day after application, 15 g/ha): 89% | inhibition at 7 g/ha ([2]; Abutilon theophrasti, foliar, 2.0 to 2.5 leaf stage, 21st day after application, 7 g/ha, read-out: Growth inhibition rate (%) of velvetleaf, Measured value): 65% | inhibition at 7 g/ha ([2]; Abutilon theophrasti, foliar, 2.0 to 2.8 leaf stage, 21st day after application, 7 g/ha, read-out: Growth inhibition rate (%) of velvetleaf, Measured value): 70% | inhibition at 15 g/ha ([2]; Abutilon theophrasti, foliar, 2.0 to 2.8 leaf stage, 21st day after application, 15 g/ha, read-out: Growth inhibition rate (%) of velvetleaf, Measured value): 90% | inhibition at 15 g/ha ([2]; Abutilon theophrasti, foliar, 3.0 to 3.5 leaf stage, 21st day after application, 15 g/ha, read-out: Growth inhibition rate (%) of velvetleaf, Measured value): 75%

CCn1ncc(C(=O)c2ccc(S(C)(=O)=O)c(OCCOC)c2C)c1OC(=O)SC(C)C [No. 208]
Growth inhibition rate (%) of crabgrass, Measured value ([1]; 2.7 to 3.6 leaf stage, 21st day after application, 7.75 g/ha): 83% | Growth inhibition rate (%) of crabgrass, Measured value ([1]; 2.7 to 3.6 leaf stage, 21st day after application, 15.5 g/ha): 83% | Growth inhibition rate (%) of velvetleaf, Measured value ([2]; 3.2 to 4.1 leaf stage, 21st day after application, 7.75 g/ha): 73% | Growth inhibition rate (%) of velvetleaf, Measured value ([2]; 3.2 to 4.1 leaf stage, 21st day after application, 15.5 g/ha): 73%

CCC(CC)Nc1c([N+](=O)[O-])cc(C)c(C)c1[N+](=O)[O-] [Pendimethalin]
inhibition at 100 g/ha ([1]; Digitaria sanguinalis, foliar, 3.5 to 5.0 leaf stage, 22nd day after application, 100 g/ha, read-out: Growth inhibition rate (%) of crabgrass, Measured value): 30% | inhibition at 200 g/ha ([2]; Abutilon theophrasti, foliar, 3.5 to 4.0 leaf stage, 22nd day after application, 200 g/ha, read-out: Growth inhibition rate (%) of velvetleaf, Measured value): 45%
